Calls of active or inactive are those of the source. No cut-off for these calls is given here.
How the values were obtained:
[1] = target: Protein smoothened (Homo sapiens) (UniProt Q99835); test: Binding affinity to SMO (unknown origin) assessed as dissociation constant by SPR analysis
[2] = Inhibition of Wnt/beta-catenin signalling in Wnt3a stimulated human HEK293 cells assessed as reduction in luciferase activity incubated for 24 hrs by TOPFlash luciferase reporter assay; format: cell-based; settings: HEK293, 24 h
Frizzled-7 = Frizzled-7 (Homo sapiens, UniProt O75084); test: Antagonist activity at his-tagged FZD7 transmembrane domain (unknown origin) assessed as dissociation constant by SPR analysis

Chain of Protein smoothened (Homo sapiens) (Q99835 whole entry): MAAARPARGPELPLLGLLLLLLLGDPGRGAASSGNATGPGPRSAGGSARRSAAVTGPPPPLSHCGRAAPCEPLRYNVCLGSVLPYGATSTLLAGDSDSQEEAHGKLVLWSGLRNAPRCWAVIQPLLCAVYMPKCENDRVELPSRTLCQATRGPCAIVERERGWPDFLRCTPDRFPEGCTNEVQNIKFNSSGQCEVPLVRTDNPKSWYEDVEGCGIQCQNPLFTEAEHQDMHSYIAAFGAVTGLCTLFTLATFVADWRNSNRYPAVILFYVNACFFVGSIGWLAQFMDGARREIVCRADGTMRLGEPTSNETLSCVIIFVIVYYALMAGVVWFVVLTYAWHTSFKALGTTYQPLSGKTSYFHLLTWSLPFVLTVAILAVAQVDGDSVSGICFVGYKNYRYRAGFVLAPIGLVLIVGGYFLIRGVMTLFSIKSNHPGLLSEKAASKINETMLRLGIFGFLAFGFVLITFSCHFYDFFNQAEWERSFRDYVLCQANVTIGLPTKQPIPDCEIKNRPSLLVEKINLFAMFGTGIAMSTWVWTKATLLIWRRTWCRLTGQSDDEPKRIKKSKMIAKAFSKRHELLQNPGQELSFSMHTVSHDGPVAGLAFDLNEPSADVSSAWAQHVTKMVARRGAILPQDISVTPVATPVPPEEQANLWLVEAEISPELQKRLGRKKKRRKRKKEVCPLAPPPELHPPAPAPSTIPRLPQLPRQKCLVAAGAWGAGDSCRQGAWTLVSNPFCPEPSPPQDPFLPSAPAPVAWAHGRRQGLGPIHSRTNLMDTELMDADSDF

Row | Activity [1] | IC50 [2] [nM] | Kd (Frizzled-7) [nM] | SMILES
1 | inactive | 1280 | 160 | O=C(CSc1ccc(NC(=O)c2ccc(F)cc2)cc1)Nc1nc(-c2ccccc2)cs1
2 |  | 230 |  | Cc1ccc(C(=O)Nc2ccc(SCC(=O)Nc3nc(-c4ccccc4)cs3)cc2)cc1
3 |  | 40 |  | Cc1ccc(C(=O)Nc2ccc(SCC(=O)Nc3nc(-c4ccccc4)cs3)cc2)c(C)c1
